Assays:
Type in all cases: in vitro ADME
[1] = Unbound fraction in plasma (rapid equilibrium dialysis), mouse; settings: mice plasma, 0.3, 1, 3 μM, RED 5 h, read-out: fu,p
Procedure: The unbound fractions of IDP-73152 in various matrices were measured according to the manufacturer’s instructions for the rapid equilibrium dialysis (RED) device (ThermoFisher Scientific, Waltham, MA, USA). Briefly, IDP-73152 was added to the plasma or the microsomal/hepatocyte incubation buffer from various species (i.e., mouse, rat, dog, and human for microsomal incubation; rat for hepatocyte incubation) to obtain final concentrations of the compound at 0.3, 1, and 3 μM. After the membrane insert was placed in the RED plate, the solution containing IDP-73152 was added (400 µL) to the sample chamber, and the dialysis buffer (600 μL) was added to the buffer chamber. The RED plate was sealed with parafilm and then incubated at 37 °C in the orbital shaker (Lab Companion, Daejeon, Korea) at 100 rpm for 5 h. After a 50 μL aliquot was aspirated from both the sample and buffer chambers, an equal volume of protein-free buffer or blank medium was replaced in the aspirated sample or buffer to render the matrices compositionally identical. The IDP-73152 concentration in the buffer/sample chambers (i.e., CBuffer Chamber and CSample Chamber) was determined by an assay. Thus, the fraction unbound was defined as:(2) % Fraction unbound=(CBuffer Chamber/CSample Chamber)×100%

[2] = Blood partitioning (LC-MS/MS-based depletion method), mouse; settings: whole blood, mice blood, 0.3, 1, 3 μM, read-out: BP (blood-to-plasma concentration ratio)
Procedure: In this study, the partitioning of IDP-73152 in blood samples obtained from mice, rats, dogs, and humans was determined using the LC-MS/MS-based depletion method with slight modifications. DP-73152 was added to an aliquot (1 mL) of blank blood or plasma at a final concentration of 0.3, 1, or 3 μM. The mixture was incubated at 37 °C in a water bath for 60 min. After the incubation, the plasma was separated by centrifugation of the blood samples for 5 min at 10,000× g/4 °C and stored at -80 °C until analysis. The blood-to-plasma concentration ratio (BP) was calculated using the equation:(3) BP=[…], where […] is the concentration of the compound at the corresponding blood concentration in the plasma, and CPL is the concentration from the plasma sample separated from the incubated blood.

[3] = Metabolic stability in liver microsomes, rat
Procedure: In this study, the metabolic stability of IDP-73152 in microsomes from mice, rats, dogs, and humans, as well as rat hepatocytes, was determined. For a microsomal incubation study, the incubation mixtures, containing mouse, rat, dog, or human liver microsomes at a protein concentration of 0.5 mg/mL, 3.3 mM MgCl2, and 1.3 mM NADPH, in a 100 mM potassium phosphate buffer (pH 7.4), were preincubated for 3 min at 37 °C. In parallel, a control incubation mixture (i.e., identical composition to that of the incubation mixture without NADPH) was also prepared for comparison. The reaction was initiated by the addition of a 10 × solution of IDP-73152 (final concentration in mixtures of 1 μM) to the incubation mixtures or the control incubation mixtures. The mixtures were incubated in a shaking water bath (37 °C, 90 rpm). Aliquots (30 μL) were collected at 0, 15, 30, and 45 min from the mixture and the reaction was terminated by the addition of a 4-fold volume of ice-cold acetonitrile to the sample. The mixture was then vortexed for 5 min and centrifuged for 10 min at 10,000× g. The supernatant was collected and stored at -80 °C until the analysis. For the hepatocyte incubation study, rat hepatocytes were freshly prepared using the two-step collagenase perfusion method with slight modifications. After the isolation, cell viability during the preparation process was first determined by a trypan blue exclusion assay prior to the stability study. The preparation was considered adequate for subsequent studies if the viability was greater than 80%. When appropriate, the hepatocytes were resuspended in Williams' media E containing 10% fetal bovine serum, 1% penicillin-streptomycin, and 0.01% insulin-transferrin-selenium (i.e., 10 mg/mL insulin, 5.5 mg/mL transferrin, and 5 mg/mL selenium) at pH 7.4. The reaction was carried out with the hepatocyte suspension prepared at 1 × 10^6 cells/mL (0.5 mL) and initiated by the addition of equal volume of IDP-73152 solution (i.e., final concentration of the compound at 1 μM in 0.5 × 10^6 cells/mL of hepatocytes) to the hepatocyte suspension. […] Assuming first-order disappearance kinetics, the slope k of the logarithmically transformed IDP-73152 concentration in the sample versus time plot was determined by the linear regression analysis of the data. The total intrinsic clearance (CLint,mic, μL/min/mg protein for microsomal incubation study and CLint,hep, μL/min/million cells for hepatocytes incubation study) was then calculated using the following equations:(4) CLint, mic=k×Volume of incubation medium (μL)/Protein in incubation medium (mg) (5) CLint,hep=k×Volume of incubation (μL)/Number of cells in incubation (×10^6) The unbound intrinsic clearance, with respect to the whole liver ([…]), was then estimated for the two cases. […]

Q: With `CC(C)(C)[C@H](NC(=O)[C@H](CC1CCCC1)CN(O)C=O)C(=O)N1CCC(NCc2cc(F)c(F)cc2F)CC1` [IDP-73152] as the compound, how does the fraction unbound at 5 h [1] read?
A: Its fraction unbound at 5 h is 0.0562 ± 0.0087.

Q: And the blood plasma ratio at 60 min [2]?
A: Its blood plasma ratio at 60 min is 1.31 ± 0.13.

Q: What about the CLhep predicted at 1 μM ([3]; rat, liver microsomes, pH 7.4, rats, read-out: CLh calculated from the CLint,mic (converted)) of the same compound?
A: The CLhep predicted at 1 μM was 28.2 mL/min/kg.

Q: What about the microsomal CLint at 1 μM ([3]; rat, pH 7.4, rats liver microsomes 0.5 mg/mL, 1 μM, read-out: CLint,mic) of the same compound?
A: The microsomal CLint at 1 μM was 72 ± 2.6 µL/min/mg.

Q: And the “hepatic ER (extraction ratio)” value ([3]; rats, from microsomal clearance, well-stirred model)?
A: The value was 0.222 ± 0.006.

Q: And the “CLu,int,H” value ([3]; rats, scaled up to the whole liver from microsomes)?
A: Its value is 7.46 ± 0.27 L/h.
